# Reference: patent US9695155B2, “Herbicidal substituted pyrimidinyloxy benzene compounds” (E. I. DU PONT DE NEMOURS AND COMPANY, priority 2013, dated 2017)
# Legend:
# Assay in all cases: Test E postemergence
# Italian ryegrass = assay type: in vivo, Lolium multiflorum
# Method in brief: (§1)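 Response was scored visually on a 0-100 scale (100 = complete control) versus controls after 14 to 21 days in the greenhouse. Test chemicals, formulated with surfactant in a non-phytotoxic solvent mixture, had been applied preemergence to seeds in silt loam soil or postemergence to 1- to 4-leaf plants in potting medium.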
# barnyardgrass = assay type: in vivo, Echinochloa crus-galli
# Method in brief: as §1
# dayflower = assay type: in vivo, Commelina virginica
# Method in brief: as §1
# soybean = assay type: in vivo, Glycine max
# Method in brief: as §1
# [1] = system: waterhemp_RES2 (ALS & HPPD resistant common waterhemp); assay type: in vivo, Amaranthus rudis; conditions: for pest or weed control at 31 g/ha / pest or weed control at 62 g/ha / pest or weed control at 125 g/ha / pest or weed control at 16 g/ha: Amaranthus tuberculatus, post-emergence, read-out: Plant response rating, Waterhemp_RES2
# Method in brief: as §1
# [2] = system: waterhemp_RES1 (ALS & Triazine resistant common waterhemp); assay type: in vivo, Amaranthus rudis
# Method in brief: as §1
# [3] = Lolium multiflorum, post-emergence, Postemergence, 62 g ai/ha, scale 0 to 100, read-out: Plant response rating, Ryegrass, Italian
# [4] = Lolium multiflorum, post-emergence, Postemergence, 125 g ai/ha, scale 0 to 100, read-out: Plant response rating, Ryegrass, Italian
# [5] = Lolium multiflorum, post-emergence, postemergence, 16 g ai/ha, scale 0 to 100, 0 no effect, 100 complete control, read-out: Plant response rating, Ryegrass, Italian
# [6] = Echinochloa crus-galli, post-emergence, Postemergence, 31 g ai/ha, scale 0 to 100, read-out: Plant response rating, Barnyardgrass
# [7] = Echinochloa crus-galli, post-emergence, Postemergence, 62 g ai/ha, scale 0 to 100, read-out: Plant response rating, Barnyardgrass
# [8] = Echinochloa crus-galli, post-emergence, Postemergence, 125 g ai/ha, scale 0 to 100, read-out: Plant response rating, Barnyardgrass
# [9] = Echinochloa crus-galli, post-emergence, postemergence, 16 g ai/ha, scale 0 to 100, 0 no effect, 100 complete control, read-out: Plant response rating, Barnyardgrass
# [10] = Commelina virginica, post-emergence, Postemergence, 31 g ai/ha, scale 0 to 100, read-out: Plant response rating, Dayflower, VA
# [11] = Commelina virginica, post-emergence, Postemergence, 62 g ai/ha, scale 0 to 100, read-out: Plant response rating, Dayflower, VA
# [12] = Commelina virginica, post-emergence, Postemergence, 125 g ai/ha, scale 0 to 100, read-out: Plant response rating, Dayflower, VA
# [13] = Commelina virginica, post-emergence, postemergence, 16 g ai/ha, scale 0 to 100, 0 no effect, 100 complete control, read-out: Plant response rating, Dayflower, VA
# [14] = Glycine max, post-emergence, Postemergence, 31 g ai/ha, scale 0 to 100
# [15] = Glycine max, post-emergence, Postemergence, 62 g ai/ha, scale 0 to 100
# [16] = Glycine max, post-emergence, Postemergence, 125 g ai/ha, scale 0 to 100
# [17] = Glycine max, post-emergence, postemergence, 16 g ai/ha, scale 0 to 100, 0 no effect, 100 complete control
# [18] = Postemergence, 31 g ai/ha, scale 0 to 100
# [19] = Postemergence, 62 g ai/ha, scale 0 to 100
# [20] = Postemergence, 125 g ai/ha, scale 0 to 100
# [21] = postemergence, 16 g ai/ha, scale 0 to 100, 0 no effect, 100 complete control
# [22] = postemergence, 8 g ai/ha, scale 0 to 100, 0 no effect, 100 complete control
smiles,measurement,setting,value
"N#Cc1cccc(Oc2ncc(F)cn2)c1-n1cc(C(F)(F)F)cn1 [Compound 79, 3-[(5-fluoro-2-pyrimidinyl)oxy]-2-[4-(trifluoromethyl)-1H-pyrazol-1-yl]benzonitrile]",pest or weed control at 62 g/ha,Italian ryegrass; [3],0%
same,pest or weed control at 125 g/ha,Italian ryegrass; [4],0%
same,pest or weed control at 16 g/ha,Italian ryegrass; [5],0%
same,pest or weed control at 31 g/ha,barnyardgrass; [6],0%
same,pest or weed control at 62 g/ha,barnyardgrass; [7],10%
same,pest or weed control at 125 g/ha,barnyardgrass; [8],20%
same,pest or weed control at 16 g/ha,barnyardgrass; [9],0%
same,pest or weed control at 31 g/ha,dayflower; [10],30%
same,pest or weed control at 62 g/ha,dayflower; [11],50%
same,pest or weed control at 125 g/ha,dayflower; [12],50%
same,pest or weed control at 16 g/ha,dayflower; [13],10%
same,"plant response (crop injury) rating, soybean, 0-100 scale at 31 g/ha",soybean; [14],70%
same,"plant response (crop injury) rating, soybean, 0-100 scale at 62 g/ha",soybean; [15],95%
same,"plant response (crop injury) rating, soybean, 0-100 scale at 125 g/ha",soybean; [16],95%
same,"plant response (crop injury) rating, soybean, 0-100 scale at 16 g/ha",soybean; [17],60%
same,pest or weed control at 31 g/ha,[1]; [18],80%
same,pest or weed control at 62 g/ha,[1]; [19],90%
same,pest or weed control at 125 g/ha,[1]; [20],95%
same,pest or weed control at 16 g/ha,[1]; [21],75%
same,"Plant response rating, Waterhemp_RES1",[2]; [18],60
same,"Plant response rating, Waterhemp_RES1",[2]; [19],75
same,"Plant response rating, Waterhemp_RES1",[2]; [20],100
same,"Plant response rating, Waterhemp_RES1",[2]; [21],40
"N#Cc1cccc(Oc2ncc(Cl)cn2)c1-n1cc(OCC(F)(F)F)cn1 [Compound 274, 3-[(5-chloro-2-pyrimidinyl)oxy]-2-[4-(2,2,2-trifluoroethoxy)-1H-pyrazol-1-yl]benzonitrile]",pest or weed control at 31 g/ha,"Italian ryegrass; Lolium multiflorum, post-emergence, Postemergence, 31 g ai/ha, scale 0 to 100, read-out: Plant response rating, Ryegrass, Italian",10%
same,pest or weed control at 62 g/ha,Italian ryegrass; [3],10%
same,pest or weed control at 125 g/ha,Italian ryegrass; [4],40%
same,pest or weed control at 8 g/ha,"Italian ryegrass; Lolium multiflorum, post-emergence, postemergence, 8 g ai/ha, scale 0 to 100, 0 no effect, 100 complete control, read-out: Plant response rating, Ryegrass, Italian",0%
same,pest or weed control at 16 g/ha,Italian ryegrass; [5],5%
same,pest or weed control at 31 g/ha,barnyardgrass; [6],20%
same,pest or weed control at 62 g/ha,barnyardgrass; [7],10%
same,pest or weed control at 125 g/ha,barnyardgrass; [8],60%
same,pest or weed control at 8 g/ha,"barnyardgrass; Echinochloa crus-galli, post-emergence, postemergence, 8 g ai/ha, scale 0 to 100, 0 no effect, 100 complete control, read-out: Plant response rating, Barnyardgrass",5%
same,pest or weed control at 16 g/ha,barnyardgrass; [9],10%
same,pest or weed control at 31 g/ha,dayflower; [10],20%
same,pest or weed control at 62 g/ha,dayflower; [11],40%
same,pest or weed control at 125 g/ha,dayflower; [12],70%
same,pest or weed control at 8 g/ha,"dayflower; Commelina virginica, post-emergence, postemergence, 8 g ai/ha, scale 0 to 100, 0 no effect, 100 complete control, read-out: Plant response rating, Dayflower, VA",5%
same,pest or weed control at 16 g/ha,dayflower; [13],10%
same,"plant response (crop injury) rating, soybean, 0-100 scale at 31 g/ha",soybean; [14],75%
same,"plant response (crop injury) rating, soybean, 0-100 scale at 62 g/ha",soybean; [15],95%
same,"plant response (crop injury) rating, soybean, 0-100 scale at 125 g/ha",soybean; [16],95%
same,"plant response (crop injury) rating, soybean, 0-100 scale at 8 g/ha","soybean; Glycine max, post-emergence, postemergence, 8 g ai/ha, scale 0 to 100, 0 no effect, 100 complete control",20%
same,"plant response (crop injury) rating, soybean, 0-100 scale at 16 g/ha",soybean; [17],35%
same,pest or weed control at 31 g/ha,[1]; [18],85%
same,pest or weed control at 62 g/ha,[1]; [19],95%
same,pest or weed control at 125 g/ha,[1]; [20],100%
same,pest or weed control at 16 g/ha,[1]; [21],80%
same,"Plant response rating, Waterhemp_RES1",[2]; [18],80
same,"Plant response rating, Waterhemp_RES1",[2]; [19],90
same,"Plant response rating, Waterhemp_RES1",[2]; [20],100
same,"Plant response rating, Waterhemp_RES1",[2]; [22],60
same,"Plant response rating, Waterhemp_RES1",[2]; [21],75
Clc1cnc(Oc2ccccc2-n2cc(Br)nn2)nc1 [Compound 223],"Plant response rating, Ryegrass, Italian",Italian ryegrass; [18],0
same,"Plant response rating, Ryegrass, Italian",Italian ryegrass; [19],0
same,"Plant response rating, Ryegrass, Italian",Italian ryegrass; [20],0
same,"Plant response rating, Ryegrass, Italian",Italian ryegrass; [22],0
same,"Plant response rating, Ryegrass, Italian",Italian ryegrass; [21],0
same,"Plant response rating, Barnyardgrass",barnyardgrass; [18],0
same,"Plant response rating, Barnyardgrass",barnyardgrass; [19],0
same,"Plant response rating, Barnyardgrass",barnyardgrass; [20],0
same,"Plant response rating, Barnyardgrass",barnyardgrass; [22],0
same,"Plant response rating, Barnyardgrass",barnyardgrass; [21],0
same,"Plant response rating, Dayflower, VA",dayflower; [18],25
same,"Plant response rating, Dayflower, VA",dayflower; [19],55
same,"Plant response rating, Dayflower, VA",dayflower; [20],65
same,"Plant response rating, Dayflower, VA",dayflower; [22],0
same,"Plant response rating, Dayflower, VA",dayflower; [21],0
same,"Plant response rating, Soybean",soybean; [18],95
same,"Plant response rating, Soybean",soybean; [19],98
same,"Plant response rating, Soybean",soybean; [20],98
same,"Plant response rating, Soybean",soybean; [22],30
same,"Plant response rating, Soybean",soybean; [21],60
same,"Plant response rating, Waterhemp_RES2",[1]; [18],80
same,"Plant response rating, Waterhemp_RES2",[1]; [19],80
same,"Plant response rating, Waterhemp_RES2",[1]; [20],95
same,"Plant response rating, Waterhemp_RES2",[1]; [21],75
same,"Plant response rating, Waterhemp_RES1",[2]; [18],80
same,"Plant response rating, Waterhemp_RES1",[2]; [19],70
same,"Plant response rating, Waterhemp_RES1",[2]; [20],95
same,"Plant response rating, Waterhemp_RES1",[2]; [22],30
same,"Plant response rating, Waterhemp_RES1",[2]; [21],60
